From patent US20240228572A1 (i2o Therapeutics, Inc., priority 2020, published 2024)
*1 amine or outer side, *2 acyl side, *3 side chain or, on linkers, in order; H or OH if unused. Where a SMILES comes first, the peptide text is derived from it. Side-chain parts run from the residue outwards. [ ]: non-standard residue; d: D form. The star is where a group is joined. C20 diacid = O=C(O)CCCCCCCCCCCCCCCCCCC(=O)*; γGlu = O=C(O)[C@H](CCC(=O)[*:2])N[*:1]; AEEA = NCCOCCOCC(=O)O; Aib = CC(C)(N)C(=O)O

Legend:
[1] = Intravenous infusion pharmacokinetics in rats; format: in vivo; settings: rat, plasma, IV infusion 0.033 mg/kg, male Sprague-Dawley rats
Description: Peptides were dissolved in 0.05% Tween-20 in phosphate buffered saline and administered as a 1-hour intravenous infusion to non-fasted male Sprague-Dawley rats (n=3 per group) via femoral vein cannula at a final dose of 0.033 mg/kg. Formulations were administered at a rate of 1.67 mL/kg/h. Blood samples (approximately 250 μL) were collected for pharmacokinetic analysis via a jugular vein cannula at 0.25, 0.5, 0.75, 1, 1.17, 1.33, 1.5, 2, 4, 8, 24, 48, 72, and 96 hours post-start of infusion into microtainer tubes containing K2EDTA as anticoagulant and 25 μL of a protease inhibitor cocktail. Plasma was prepared by centrifugation and stored at −80° C. until analysis.
A 70 μL aliquot of each plasma sample was placed into to a 96-well plate. To each well was added 210 μL of 0.1% TFA in 2:1 ethanol:acetonitrile containing an appropriate internal standard. Plates were vortex mixed for 10 min at 1300 rpm, and then centrifuged for 10 min at 500× g. Supernatants (210 μL) were placed into a clean 96-well plate and evaporated under a nitrogen stream at 45° C. Residues were reconstituted in 80 μL of 20% acetonitrile (aq) containing 0.1% formic acid.
All calibration standards were prepared in control rat plasma containing K2EDTA and protease inhibitor cocktail.
Samples and standards were analyzed by electrospray ionization (ESI) UPLC-MS/MS using a system consisting of a CTC HTS PAL auto-injector (Leap, Carrboro, NC), an Agilent Infinity 1290 system with column oven (Palo Alto, CA), a Valco switching valve (Houston, TX), and a Sciex TripleTOF® 5600 mass spectrometer (Framingham, MA). Samples were injected onto a 2.1×50 mm reverse phase C18 analytical column, typically a Waters CORTECS UPLC C18+, 1.6 μm (Waters Corporation, Milford, MA) or similar. […] Initial conditions consisted of 95% A and 5% B. The organic component was increased to 95% B over a period of 3-4 minutes, depending on the peptide. Typical flow rates were 550 μL/min. The column temperature was held constant at 45° C. Peptides were quantified by monitoring one or more product ions produced from a multiply charged parent ion.

[2] = Stability in subcutaneous (SC) tissue homogenates, rat; format: in vitro ADME; settings: subcutaneous (SC) tissue homogenate, pH 7.4, read-out: (H)SC tissue stability t½ (converted)
Description: In vitro incubations in subcutaneous (SC) tissue homogenates were used to characterize the ability of peptides to resist pre-systemic degradation by proteases and peptidases after SC administration. In vivo nonclinical studies have shown that peptidase activity in the SC space can limit the bioavailability of a peptide after SC administration. Peptides with high SC bioavailability are stable in this assay, while peptides with low SC bioavailability are unstable in this assay.
Human SC tissue was homogenized in cold 25 mM HEPES buffer (pH 7.4, 10-fold volume based on sample weight), and then filtered through a double layer of cheesecloth. The filtrates were aliquoted, flash frozen on a methanol/dry ice bath and stored at −80° C. The protein concentration of each pooled batch was determined using the BCA protein assay. Thawed stocks of human SC tissue homogenates were diluted to 1.0 mg protein/mL in 25 mM HEPES buffer (pH 7.4) and aliquoted into a 96-well plate. The diluted SC homogenates were pre-warmed for 10 minutes at 37° C. Reactions were initiated by the addition of test peptide (10 mcM final concentration) also dissolved in 25 mM HEPES buffer (pH 7.4). Reactions were maintained at 37° C. in a shaking water bath. […] Samples were analyzed by UPLC-MS/MS.

[3] = Metabolic stability in human kidney brush border membranes (kBBM); format: in vitro ADME; settings: 1 mcM peptide, 50 mcg protein/mL, 37° C., pH 7.4, read-out: kBBM t½
Description: (§1) Brush border membranes from rat and human kidney tissue were prepared via centrifugation and stored at −70° C. Thawed stocks of rat or human kBBM were diluted to the appropriate concentration in 25 mM HEPES buffer (pH 7.4) containing 1% casein and aliquoted into a 96-well plate. The kBBM solutions were pre-warmed for 10 minutes at 37° C. Reactions were initiated by the addition of test peptide (1 mcM final concentration) also dissolved in 25 mM HEPES buffer (pH 7.4) containing 1% casein. The final concentration of kBBM in each incubation was 50 mcg protein/mL. Reactions were maintained at 37° C. in a shaking water bath. At 0, 0.25, 0.5, 1.0, 2.0, and 4.0 h post-initiation, 30 mcL of the reaction mixture was removed and placed into a 96-well plate containing 120 mcL of ice-cold methanol containing 2.5% formic acid. Quenched samples were centrifuged at 2178×g for 10 min and then a portion of the supernatants were transferred to a clean 96-well plate and diluted 1:1 with water.

[4] = Metabolic stability in rat kidney brush border membranes (kBBM); format: in vitro ADME; settings: 1 mcM peptide, 50 mcg protein/mL, 37° C., pH 7.4, read-out: kBBM t½ (converted)
Description: as §1

[5] = Metabolic stability in monkey kidney brush border membranes (kBBM); format: in vitro ADME; settings: pH 7.4, read-out: kBBM t½
Description: as §1

CC(C)C[C@H](NC(=O)[C@H](Cc1ccc(O)cc1)NC(=O)[C@H](CCCCN)NC(=O)[C@H](CO)NC(=O)[C@H](Cc1ccc(O)cc1)NC(=O)[C@H](CC(=O)O)NC(=O)[C@H](CO)NC(=O)[C@@H](NC(=O)[C@H](Cc1ccccc1)NC(=O)[C@@H](NC(=O)CNC(=O)[C@H](Cc1c[nH]cn1)NC(=O)[C@H](CO)NC(=O)[C@@H](N)Cc1ccc(O)cc1)[C@@H](C)O)[C@@H](C)O)C(=O)N[C@@H](CC(=O)O)C(=O)NC(C)(C)C(=O)N[C@@H](CCCCN)C(=O)N[C@@H](Cc1ccc(O)cc1)C(=O)N[C@@H](C)C(=O)N[C@@H](CCC(N)=O)C(=O)N[C@@H](CCCCNC(=O)CC[C@H](NC(=O)CC[C@H](NC(=O)COCCOCCNC(=O)CCCCCCCCCCCCCCCCCCC(=O)O)C(=O)O)C(=O)O)C(=O)N[C@@H](Cc1ccccc1)C(=O)N[C@H](C(=O)NC(C)(C)C(=O)N[C@@H](Cc1c[nH]c2ccccc12)C(=O)N[C@@H](CC(C)C)C(=O)N[C@@H](CCC(=O)O)C(=O)N[C@@H](CC(=O)O)C(=O)N[C@@H](CCC(=O)O)C(=O)N1CCC[C@H]1C(=O)N[C@@H](CO)C(=O)N[C@@H](CO)C(=O)NCC(=O)N[C@@H](C)C(=O)N1CCC[C@H]1C(=O)N1CCC[C@H]1C(=O)N1CCC[C@H]1C(=O)N[C@@H](CO)C(=O)O)C(C)C [Compound A6] (H-YSHGTFTSDYSKYLD[Aib]KYAQK([γGlu-γGlu-AEEA-C20 diacid])FV[Aib]WLEDEPSSGAPPPS-OH; N-terminus assumed)
clearance ([1]; 1-hour): 4.97 mL/h/kg | half-life [1]: 13 h | Vd ([1]; read-out: Vss): 0.0867 L/kg | half-life at 10 mcM [2]: 9 h | half-life at 1 mcM [3]: > 72 h | half-life at 1 mcM [4]: 6.6 h | half-life at 1 mcM [5]: > 12 h
